Patent US20070117220A1, “METHOD AND APPARATUS FOR MEASURING FLUORESCENCE POLARIZATION IN LAB-ON-A-CHIP” (priority 2005, published 2007)

Experiments:
[1] = target: T1, streptavidin (Streptomyces avidinii, UniProt P22629); assay: Fluorescence polarization of biotin/streptavidin complex in lab-on-a-chip microchannel, apparatus of FIG. 2 with optical chopper (Embodiment 3); assay type: binding
Procedure: Fluorescence polarization for the complex of biotin and streptavidin was measured using the apparatus of FIG. 2 including the optical chopper of the invention. In this Embodiment, a lab-on-a-chip made of glass and composed of a microchannel having a depth of 12 μm and a width of 79 μm was used to measure fluorescence polarization for a complex of biomolecule-fluorescently labeled biomaterial.
For the measurement, the samples were respectively filled in the reservoir of the lab-on-a-chip as following three cases: (A) wherein 4 μM of tetramethylrhodamine TMR was filled in the reservoir; (B) wherein 4 μM of TMR-biotin was put into the reservoir; and (C) wherein 4 μM of TMR-biotin and 1 μM of streptavidin were filled in the reservoirs.
Fluorescence polarizations FP for the above samples were measured in the microchannel of the lab-on-a-chip using the apparatus of FIG. 2 including the optical chopper.
As a result, in case of (A), fluorescence polarization was measured 0.047; in case of (B), it was 0.062; and in case of (C), it was 0.240, which were increased the complex of TMR-biotin and streptavidin was formed as shown in FIG. 7A.

[2] = target: T1, streptavidin; assay: Fluorescence polarization of biotin/streptavidin complex in lab-on-a-chip microchannel, apparatus of FIG. 2 without optical chopper (Embodiment 2); assay type: binding
Procedure: Fluorescence polarization FP for the complex of biotin and streptavidin in a lab-on-a-chip was measured using the apparatus of FIG. 2, wherein the optical chopper was not inserted. In this Embodiment, a lab-on-a-chip made of glass and composed of a microchannel having a depth of 12 μm and a width of 79 um was used instead of the 100 μL cuvette. After filling 100 μM of tetramethylrhodamine TMR solution in the microchannel of the lab-on-a-chip using a vacuum pump, a G-factor value was obtained in the same manner described above in Embodiment 1. […] Subsequently, the above samples filled in the reservoirs 1 and 2 were injected into the microchannel using the vacuum pump 6 of the lab-on-a-chip to measure fluorescence polarizations FP for the samples at a detection point 5 of the lab-on-a-chip.
As a result, in case of (A), fluorescence polarization was measured 0.085; in case of (B), it was 0.097; in case of (C), it was 0.036; in case of (D), it was 0.040; and in case of (E), it was 0.064, which were deviated from the expectations of increases in fluorescence polarization FP as not increased as the complex of TMR-biotin and streptavidin was formed as shown in FIG. 6A.
Fluorescence polarizations were recalculated from the measured values by subtracting the offset values, the offset being measured in the microchannel when only the buffer solution was filled. […]

[3] = system: TMR-α-casein; assay: Protease assay by fluorescence polarization of TMR-α-casein substrate, commercial fluorescence spectrometer; assay type: biochemical; settings: time course, varying enzyme concentrations (unit/mL); FIGS. 9A-9D
Procedure: Changes of fluorescence polarization FP were measured using the method and apparatus for measuring fluorescence polarization of the present invention, employing TMR-α-casein as a substrate, composed of TMR as a fluorescent probe and α-casein, a universal protein substrate reacted with various proteases.
First, TMR-α-casein, a fluorescently labeled substrate for proteases, was prepared by applying one of the well-known methods [Analytical Biochemistry (,1996) 243, 1-7] as follows.
10 mg/mL of α-casein (sigma) and 5 mg/mL of 5-carboxytetramethylrhodamine succinimidyl ester were mixed in 0.1 M sodium bicarbonate buffer solution (pH 9.0) for reaction at room temperature for two and a half hours. The resulting TMR-α-casein was purified by passing the reaction mixture over a HiTrap desalting column (Sephadex G-25 Amersham Bioscience), and used after quantitation of the amounts of protein and fluorescence.
Proteinase K, trypsin, papain and elastase were used as proteases to react at increasing concentrations. First, as a comparative example, the process that the TMR-α-casein substrate was degraded by the proteases was analyzed using a commercial fluorescence spectrometer (Perkin Elmer). […]

[4] = system: TMR-α-casein; assay: On-chip protease assay by fluorescence polarization of TMR-α-casein substrate, lab-on-a-chip with optical chopper; assay type: biochemical; settings: 1 μM TMR-α-casein final in channel; reaction time 5.1 seconds; FIGS. 10A-10D
Procedure: Next, the protease assays were carried out using an apparatus for measuring fluorescence polarization including the optical chopper of FIG. 2 on a lab-on-a-chip of glass composed of a channel 1 C1, in which substrates or enzymes flowed, and a channel 2 C2, in which the reaction occurred, the channels having a depth of 12 μm and a width of 79 μm as depicted in FIG. 8.
For on-chip protease assays, the substrates and the enzymes should mix completely prior to the enzyme reactions. […] […] Therefore, the reaction time was confirmed to be 5.1 seconds after mixing of the substrate with the enzymes.
Subsequently, to carry out the protease assays in the lab-on-a-chip,2 μM of TMR-α-casein (the final concentration in the channel was 1 μM) was placed in a substrate reservoir and the respective proteases were placed in an enzyme reservoir at increasing concentrations in the same manner as the comparative example. Then, the two substances were allowed to flow into a channel 2 C2, a main channel, to cause a reaction. Fluorescence polarization FP was then measured at the detection point, positioned 32 mm away from the junction, from which the substrates and the enzymes flowed in.
Again, it was noted that fluorescence polarization values plateaued when the concentration of the enzymes reached at the point generating a specific rate or more.

T1 sequence (P22629 25-183, species assumed): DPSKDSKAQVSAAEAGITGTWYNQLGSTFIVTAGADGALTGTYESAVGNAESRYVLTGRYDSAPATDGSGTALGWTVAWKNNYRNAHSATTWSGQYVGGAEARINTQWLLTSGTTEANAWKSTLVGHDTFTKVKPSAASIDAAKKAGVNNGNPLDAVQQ

| Compound | change of fluorescence polarization values of TMR-α-casein as the reaction proceeded [3] | change of fluorescence polarization values of TMR-α-casein with enzyme concentration [4] | also measured |
| --- | --- | --- | --- |
| O=C(O)CCCC[C@@H]1SC[C@@H]2NC(=O)N[C@@H]21 [D-biotin] | – | – | change of fluorescence polarization by competitive inhibition of TMR-biotin/streptavidin binding ([1]; increasing concentrations of D-biotin supplied to the complex (4 μM TMR-biotin, 1 μM streptavidin) in the microchannel, FIG. 7B): decreased with the increasing concentrations |
| CN(C)c1ccc2c(-c3ccccc3C(=O)[O-])c3ccc(N(C)C)cc3[o+]c2c1 [TMR, tetramethylrhodamine] | – | – | fluorescence polarization recalculated by subtracting the offset values ([2]; 1.25 μM probe only in reservoir 1, buffer offset subtracted): 0.020; fluorescence polarization (as measured, offset not subtracted) ([2]; 1.25 μM probe only in reservoir 1, no chopper): 0.085; fluorescence polarization ([1]; 4 μM probe only, microchannel, optical chopper): 0.047 |
| elastase | decreased | decreased with increasing concentrations | – |
| trypsin | decreased | decreased with increasing concentrations | – |
